# Measurements from publication PMC10840383, “Clinical features, functional consequences, and rescue pharmacology of missense GRID1 and GRID2 human variants” (Human Molecular Genetics, 2023).
# Substitutions are numbered along the chain they refer to.
# How the values were obtained:
# Assay type in all cases: cell-based
# [1] = tested on: constitutively active GluD1 and GluD2 receptor variants; assay: Inhibition of constitutive currents of GluD variants by channel blockers, Xenopus oocytes
# Experimental: Xenopus laevis oocytes were prepared from ovaries purchased from Xenopus 1 (Dexter, MI) as previously described, [68] and incubated at 16°C in culture Barth’s solution (in mM) 88 NaCl, 2.4 NaHCO3, 1 KCl, 0.33 Ca(NO3)2, 0.41 CaCl2, 0.82 MgSO4, 10 HEPES, pH 7.4 with NaOH, supplemented with 1 U/ml penicillin and 1 μg/ml streptomycin. Oocytes were injected with approximately 5–40 ng RNA per oocyte and then incubated at 16–19°C for 1–3 days in culture Barth’s solution. The levels of GluD2-A654D and GluD2-A654T cRNA were reduced to 1.5 ng and 2.5 ng, respectively, due to oocyte toxicity. Two-electrode voltage clamp (TEVC) recordings were performed as previously described. Unless otherwise specified, extracellular solution contained (in mM) 90 NaCl, 3 KCl, 0.5 BaCl2, 0.01 EDTA, 10 HEPES, and was brought to pH 7.4 with NaOH. The oocytes were placed in a dual track recording chamber and gravity perfused with solution exchange controlled via a computer-driven 8-valve positioner (Digital MVP Valve). […] Recording electrodes were filled with 0.3 M KCl, and currents were recorded with membrane voltage held at −40 mV. To establish constitutive activity of recombinant receptors when compared to wild type receptors, we used the oocyte recording solution described above, but with 90 mM N-methyl-D-glucamine (NMDG) chloride replacing 90 mM NaCl. […] In addition to establishing constitutive activity, 90 mM NMDG was used in recording protocols with drug treatment to obtain the percent maximum theoretical inhibition of a compound, or to determine the relative degree of drug potentiation. For Ca^2+ concentration-response curves, choline chloride was used to maintain equimolar concentrations of Cl^− ions in the extracellular solution across the changing concentrations of calcium chloride. All compounds used in this study for concentration-response oocyte recordings were dissolved in deionized water as 50–100 mM stock solutions. In some rescue pharmacology experiments, we substituted 1 mM CaCl2 for 0.5 mM BaCl2 to evaluate Ca^2+-dependent control of receptor responses.
# GluD2-T649A = molecular target: T1, GluD2-T649A (Rattus norvegicus, UniProt Q63226, T649A); assay: TEVC of constitutive current, Xenopus oocytes expressing GluD2-T649A; conditions: for IC50: inhibitors of constitutively active GluD2 current, read-out: T649A IC50
# T1 construct: expressed in transfected cells; host or cells: Xenopus laevis oocytes injected with cRNA
# T1 sequence (Q63226 24-1007 T649A): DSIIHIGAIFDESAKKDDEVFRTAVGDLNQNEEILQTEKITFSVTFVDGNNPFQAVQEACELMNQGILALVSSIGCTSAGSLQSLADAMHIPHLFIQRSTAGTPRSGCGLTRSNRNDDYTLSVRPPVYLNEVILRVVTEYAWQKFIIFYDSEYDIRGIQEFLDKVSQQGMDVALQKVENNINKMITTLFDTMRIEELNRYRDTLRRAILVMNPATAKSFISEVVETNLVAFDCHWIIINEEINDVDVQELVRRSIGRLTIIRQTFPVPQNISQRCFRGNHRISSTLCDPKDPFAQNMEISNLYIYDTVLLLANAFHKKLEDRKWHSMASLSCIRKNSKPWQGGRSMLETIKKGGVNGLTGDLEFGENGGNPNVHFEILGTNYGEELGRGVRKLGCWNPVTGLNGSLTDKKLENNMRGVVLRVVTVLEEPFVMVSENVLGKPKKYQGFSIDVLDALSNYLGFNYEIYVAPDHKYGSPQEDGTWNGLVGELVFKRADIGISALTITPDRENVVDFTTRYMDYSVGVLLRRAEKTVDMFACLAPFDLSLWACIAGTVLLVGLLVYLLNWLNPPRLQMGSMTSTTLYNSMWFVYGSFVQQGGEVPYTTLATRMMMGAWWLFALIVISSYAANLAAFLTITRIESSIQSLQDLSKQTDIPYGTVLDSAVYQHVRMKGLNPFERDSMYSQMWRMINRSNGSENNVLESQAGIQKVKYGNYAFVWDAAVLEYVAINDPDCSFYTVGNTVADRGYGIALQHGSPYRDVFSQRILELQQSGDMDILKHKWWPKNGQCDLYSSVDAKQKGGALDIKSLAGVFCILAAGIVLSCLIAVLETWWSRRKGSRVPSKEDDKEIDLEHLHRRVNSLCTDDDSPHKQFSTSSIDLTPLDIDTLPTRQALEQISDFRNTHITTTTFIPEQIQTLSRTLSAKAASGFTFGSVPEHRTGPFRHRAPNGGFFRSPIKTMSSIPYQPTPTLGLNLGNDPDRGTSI
# GluD2-A654T = molecular target: T2, GluD2-A654T (Rattus norvegicus, UniProt Q63226, A654T); assay: TEVC of constitutive current, Xenopus oocytes expressing GluD2-A654T (lurcher); conditions: for IC50: inhibitors of constitutively active GluD2 current, read-out: A654T IC50
# T2 construct: expressed in transfected cells; host or cells: Xenopus laevis oocytes injected with cRNA
# T2 sequence (Q63226 24-1007 A654T): T1 sequence (Q63226 24-1007 T649A) with A626T, A631T
SMILES,"Inhibition of constitutive currents, in words [1]","Effect on constitutive current, in words (GluD2-T649A)","Effect on constitutive current, in words (GluD2-A654T)",Fold-shift (IC50 A654T/IC50 T649A) (GluD2-T649A),IC50 (GluD2-T649A) [µM],IC50 (GluD2-A654T) [µM]
CNC1(c2ccccc2Cl)CCCCC1=O (stereo not shown) [ketamine],memantine inhibits GluD receptor constitutively active currents more effectively than ketamine,,,,,
NCC(=O)O [Glycine],,inhibited,inhibited,,,
"N[C@@H](CC(=O)O)C(=O)O [L-Aspartic Acid, L-aspartic acid]",,inhibited,inhibited,19,270,5000
"C[C@@H](N)C(=O)O [D-Alanine, D-alanine]",,inhibited,inhibited,1.2,1300,1600
